In patent publication US20230091047A1 (priority 2019, published 2023):
Like-named read-outs stand apart in the source and are kept apart here.

Columns and labels:
[1] = tested on: HBV (HepG2.117 cell line, inducibly HBV producing); assay: Anti-HBV activity: intracellular HBV DNA by real-time PCR in HepG2.117 cells after 3 days of treatment; assay type: cell-based, hepatitis B virus; details: read-out: EC50 (μM, mean value)
How it was run: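 First, HBV replication is induced in HepG2.117 cells by doxycycline absence. Next, serially diluted compound is added for 3 days. Finally, intracellular HBV DNA is quantified by HBV-specific real-time PCR.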

in vitro = assay type: cell-based; details: human, HepG2 or HepG2.117 cells, ATPlite, mean value; for CC50 at 4 days: 4-days incubation (values marked with *)
How it was run: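 Luminescent ATP quantitation served as the viability endpoint following a 3- or 4-day incubation with test compounds.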

[2] = Hepatitis B virus, HepG2.117, 72 h, HepG2.117 cells, intracellular HBV DNA by real-time PCR, 3 days of treatment, mean value
[3] = 3-days incubation (not marked with *)
[4] = HepG2.117 cells, 3 days of treatment, intracellular HBV DNA by real-time PCR, mean value
[5] = 3-days incubation (unmarked values)
[6] = Hepatitis B virus, HepG2.117, 72 h, HepG2.117 cells, 3 days of treatment, intracellular HBV DNA by real-time PCR, mean value

Compound	EC50 [1, 2]	CC50 at 3 days (in vitro; [3])	CC50 at 3 days (in vitro; [5])	EC50 [1, 6]	further results
CNC(=O)c1ccc(-n2c(N[C@H](C)C3CCC3)nc3c(c2=O)C[C@@H](C)N(C(=O)c2ccc(Cl)c(Cl)c2)C3)cc1 (single isomer, unassigned) [Compound C406a]	0.18 µM	31.3 µM			
CNC(=O)c1ccc(-n2c(NC(C)C)nc3c(c2=O)C[C@@H](C)N(C(=O)c2ccc(Cl)c(Cl)c2)C3)c(C(F)(F)F)c1 (atropisomer, axis not shown) [Compound C340a, 4-[(6R)-7-(3,4-dichlorobenzoyl)-6-methyl-4-oxo-2-[(propan-2-yl)amino]-5,6,7,8-tetrahydropyrido[3,4-d]pyrimidin-3(4H)-yl]-N-methyl-3-(trifluoromethyl)benzamide]			23.2 µM		EC50 [1, 4]: 0.1 µM
COc1ccc(CNc2nc3c(c(=O)n2-c2ccccc2OC)CCN(C(=O)c2ccc(F)c(Cl)c2)C3)cc1 [Compound C3, 7-(3-chloro-4-fluorobenzoyl)-3-(2-methoxyphenyl)-2-{[(4-methoxyphenyl)methyl]amino}-5,6,7,8-tetrahydropyrido[3,4-d]pyrimidin-4(3H)-one]				8.48 µM	CC50 at 4 days (in vitro): > 50 µM
CNC(=O)c1ccc(-n2c(NC3(c4ccccc4)CC3)nc3c(c2=O)C[C@@H](C)N(C(=O)c2ccc(Cl)c(Cl)c2)C3)cc1 [Compound C662]	0.16 µM	30.5 µM			
CNC(=O)c1ccc(-n2c(NC(C)C)nc3c(c2=O)C[C@@H](C)N(C(=O)c2cc4c(C)c(F)ccc4[nH]2)C3)cc1 [Compound C570]	0.01 µM	24.5 µM			
CC(C)Nc1nc2c(c(=O)n1-c1ccc(S(C)(=O)=O)cc1)C[C@@H](C)N(C(=O)c1ccc(Cl)c(Cl)c1)C2 [Compound C100A, (6R)-7-(3,4-dichlorobenzoyl)-3-[4-(methanesulfonyl)phenyl]-6-methyl-2-[(propan-2-yl)amino]-5,6,7,8-tetrahydropyrido[3,4-d]pyrimidin-4(3H)-one]			> 50 µM		EC50 [1, 4]: 0.27 µM
COc1ccccc1-n1c(NCCc2ccccc2)nc2c(c1=O)CCN(C(=O)c1ccc(Cl)c(Cl)c1)C2 [Compound C20, 7-(3,4-dichlorobenzoyl)-3-(2-methoxyphenyl)-2-[(2-phenylethyl)amino]-5,6,7,8-tetrahydropyrido[3,4-d]pyrimidin-4(3H)-one]				8.92 µM	CC50 at 4 days (in vitro): 23.1 µM
COc1ccc(CNc2nc3c(c(=O)n2C)CCN(C(=O)c2ccc(Cl)c(Cl)c2)C3)cc1 [Compound C52, 7-(3,4-dichlorobenzoyl)-2-{[(4-methoxyphenyl)methyl]amino}-3-methyl-5,6,7,8-tetrahydropyrido[3,4-d]pyrimidin-4(3H)-one]			> 50 µM	5.1 µM	
COc1ccc(CNc2nc3c(c(=O)n2-c2ccc(S(C)(=O)=O)cc2)CC(c2ccc(F)cc2)N(C(=O)c2ccc(Cl)c(Cl)c2)C3)cc1 (stereo not drawn) [Compound C109, 7-(3,4-dichlorobenzoyl)-6-(4-fluorophenyl)-3-[4-(methanesulfonyl)phenyl]-2-{[(4-methoxyphenyl)methyl]amino}-5,6,7,8-tetrahydropyrido[3,4-d]pyrimidin-4(3H)-one]			> 50 µM		EC50 ([1]; Hepatitis B virus, HepG2.117, 72 h): 2.11 µM
COc1ccc(CNc2nc3c(c(=O)n2-c2ccncc2)CCN(C(=O)c2ccc(Cl)c(Cl)c2)C3)cc1 [Compound C123, 7-(3,4-dichlorobenzoyl)-2-{[(4-methoxyphenyl)methyl]amino}-3-(pyridin-4-yl)-5,6,7,8-tetrahydropyrido[3,4-d]pyrimidin-4(3H)-one]			24.4 µM	1.23 µM	
CNC(=O)c1ccc(-n2c(NCc3nc(-c4ccccc4)n[nH]3)nc3c(c2=O)C[C@@H](C)N(C(=O)c2ccc(Cl)c(Cl)c2)C3)cc1 [Compound C486]	17.3 µM	> 50 µM			
Cc1nnc(-c2ccc(-n3c(NC(C)C)nc4c(c3=O)C[C@@H](C)N(C(=O)c3ccc(Cl)c(Cl)c3)C4)cc2)o1 [Compound C242, (6R)-7-(3,4-dichlorobenzoyl)-6-methyl-3-[4-(5-methyl-1,3,4-oxadiazol-2-yl)phenyl]-2-[(propan-2-yl)amino]-5,6,7,8-tetrahydropyrido[3,4-d]pyrimidin-4(3H)-one]			> 50 µM	0.28 µM	
